Like-named read-outs stand apart in the source and are kept apart here. Values belong to the compound of their own block, whether it stands above or below them.
Key:
[1] = Human volunteers given 4-OH-OPB orally before LPS infusion: tolerability; type: in vivo; details: 200 mg orally, 2 hours before LPS 4 ng/kg i.v.
Experimental: Eight of the volunteers received 4-OH-OPB 200 mg orally as two tablets of 100 mg and eight were given placebo tablets. Placebo tablets were chemically identical with the exception of the presence of 4-OH-OPB. The study drug and placebo were administered 2 hours prior to infusion of […] coli lipopolysaccharide, lot G1, United States Pharmacopeial Convention, Rockville, Md.) was administered as a bolus intravenous injection at a dose of 4 ng/kg body weight. Blood was drawn directly prior to the administration of 4-OH-OPB, directly prior to injection of LPS and 0.5, 1, 1.5, 2, 3, 4, 5, 6, 8, 10 and 23 hours thereafter for plasma levels of 4-OH-OPB and/or metabolites. Blood was collected in heparinized tubes which were centrifuged at 3000 r.p.m. for 10 minutes at 4° C., after which 2 ml plasma was transferred in acid containing tubes. Blood for ex vivo production of cytokines in whole blood and mononuclear cell (MNC) cultures was taken directly prior to the administration of 4-OH-OPB and directly prior to the injection of LPS (t=-2 hrs and t=0 hrs). Heparinized whole blood or MNCs were incubated with medium, LOS or anti-CD3/CD28. […] Concentrations of TNF-α, IL-6, IL-8, IL-10 were determined in EDTA-anticoagulated plasma by Cytometric Bead Array (Human BD Cytometric Bead Array Kit, BD Biosciences Pharmingen, San Jose, Calif.).

[2] = system: monokine production by monocytes; test: Effect on other monokines produced by stimulated monocytes; type: cell-based, human
Experimental: (§1) PBMC (peripheral blood mononuclear cells) were isolated from freshly drawn blood of a healthy donor and separated over a Percoll gradient (d=1.078, Pharmacia Fine Chemicals AB, Uppsala, Sweden). These isolated PBMC were cultured in 200 μl IMDM (2×10^5 cells/ml) at 37° C. in the presence of 5% CO2 in flat bottom plates (Nunc, Roskilde, Denmark). A combination of 1 μg/ml anti-CD3 and anti-CD28 (CLB.T3/4.E res. CLB.CD28/1, CLB, Amsterdam, The Netherlands) was used for T lymphocyte stimulation. For monocyte stimulation 100 pg/ml lipo-oligosaccharide (LOS, kind gift of Dr. J. Poolman, RIVM, Bilthoven, The Netherlands) was used.
(§2) Cytokine production of T lymphocytes was measured 3 days after anti CD3/anti CD28 stimulation. 1 day after LOS stimulation of the monocytes, cytokine production was measured. At the indicated times, supernatant was harvested and stored at −20° C. until used. IL-1b, IL-6, IL-8, IL-10, IL-12, IL-13, TNFa and IFNg were detected with ELISA kits (PeliKine-compact, CLB, Amsterdam, The Netherlands) according to the protocol. Summarized briefly, mAbs were coated on flat bottom microtitre plates (Nunc, Maxisorb) overnight in 100 μl 0.1 M sodiumbicarbonate at pH 9.6. […] The plates were measured in an ELISA-reader at 450 nm, using 540 nm for background measurements. GM-CSF was measured using a protocol similar to that used for the other cytokines. […]

[3] = system: anti-CD3/anti-CD28 induced GM-CSF production; test: anti-CD3/anti-CD28 induced GM-CSF production by PBMC (ELISA); type: cell-based, human; details: for IC50: 3 days anti-CD3/anti-CD28 stimulation, mean ± SD of at least 3 donors, 0.15-40 μM tested, read-out: IC50 aCD3/aCD28 stimulation (GM-CSF production); for concentration inhibiting GM-CSF production (total inhibition): concentration series up to 40 μM
Experimental: (§3) The medium used throughout this Example was Iscoves modified Dulbecco's medium (IMDM, Bio Whittaker, Verviers, Belgium) containing 100 U/ml penicillin, […] streptomycin (Gibco, Merelbeke, Belgium), 50 μM 2-mercaptoethanol (Sigma-Aldrich, Steinheim, Germany), 5% heat-inactivated fetal calf serum (FCS, Bodinco, Alkmaar, the Netherlands) and 20 mg/ml human transferrin (Sigma-Aldrich).
as §1
(§4) Cytokine production of T lymphocytes was measured 3 days after anti CD3/anti CD28 stimulation. 1 day after LOS stimulation of the monocytes, cytokine production was measured. At the indicated times, supernatant was harvested and stored at −20° C. until used. IL-1b, IL-6, IL-8, IL-10, IL-12, IL-13, TNFa and IFNg were detected with ELISA kits (PeliKine-compact, CLB, Amsterdam, The Netherlands) according to the protocol. Summarized briefly, mAbs were coated on flat bottom microtitre plates (Nunc, Maxisorb) overnight in 100 μl 0.1 M sodiumbicarbonate at pH 9.6. All incubations were performed in 100 μl at room temperature. Plates were washed 5 times with PBS+0.02% Tween (Mallinckrodt Baker, Deventer, The Netherlands). Samples were incubated together with a biotinylated mAb for 2 hours in High Performance ELISA-buffer (CLB). Plates were washed 5 times with PBS+0.02% Tween and incubated with streptavidin-labeled poly-horseradish peroxidase (CLB) 1:1000 diluted in PBS+2% skimmed milk for 30 minutes. After 5 wash steps the plates were developed with TMB-substrate containing 0.003% H2O2, […] 3,5,3′,5′-tetramethylbenzidine (Merck, Darmstadt, Germany) in 0.11 M sodium acetate, pH 5.5. The reaction was stopped with an equal volume of 2 M H2SO4. The plates were measured in an ELISA-reader at 450 nm, using 540 nm for background measurements. GM-CSF was measured using a protocol similar to that used for the other cytokines. The GM-CSF Abs were a kind gift from Dr. G. Trinchieri (the Wistar Institute, Philadelphia, Pa., USA) In this assay the coating Ab was anti-GM-CSF 9.1 (used at 2 μg/ml), the biotinylated Ab was anti-GM-CSF 16.3 (0.1 μg/ml). rGM-CSF (Sandoz, Basel, Switzerland) and HGF 22.10 (CLB) were used for preparation of a standard curve.
IC50 values (the concentration of the compound needed to inhibit 50% of the maximum response) were determined by using 2-fold titration curves of the compound. The minimum concentration tested was 0.15 μM and the maximum concentration was 40 μM. […] IL-6 in the culture supernatant was determined after 24 h of LOS stimulation of the PBMC by ELISA. GM-CSF in the culture supernatant was determined after 3 days of anti-CD3/anti-CD28 stimulation of the PBMC by ELISA

[4] = system: LOS induced IL-6 production; test: LOS induced IL-6 production by PBMC (ELISA); type: cell-based, human; details: for IC50: 24 h LOS stimulation, mean ± SD of at least 3 donors, 0.15-40 μM tested
Experimental: as §3, with “(Sigma-Aldrich). All used compounds are endotoxin free.” for “(Sigma-Aldrich).”
as §1, §4
IC50 values (the concentration of the compound needed to inhibit 50% of the maximum response) were determined by using 2-fold titration curves of the compound. The minimum concentration tested was 0.15 μM and the maximum concentration was 40 μM. Results represent the mean ±standard deviation of at least 3 donors. IL-6 in the culture supernatant was determined after 24 h of LOS stimulation of the PBMC by ELISA. GM-CSF in the culture supernatant was determined after 3 days of anti-CD3/anti-CD28 stimulation of the PBMC by ELISA

[5] = system: Th1 and Th2 specific cytokine production; test: Effect on lymphocyte specific cytokines (Th1 and Th2); type: cell-based, human
Experimental: as §1, §2

[6] = Stability of ring-opened product in aqueous solution; type: physicochemical
From the text: The product of Example 4 (PHBPQ, N-phenyl-2-hydroxy-2 butyl-1,3-propanal quinoneimine) was examined for stability in aqueous solution, followed by analysis by ^1H NMR spectroscopy.

[7] = LOS induced IL-6 production, PBMC

Compound: CCCCC1(O)C(=O)N(c2ccccc2)N(c2ccc(O)cc2)C1=O (stereo not shown) [4-OH-OPB, 4-Hydroxy-oxyphenbutazone]
adverse events attributable to the compound [1]: No adverse events
complaints of epigastric pain [1]: no complaints of epigastric pain
inhibition of LOS-induced monokines compared with IL-6 ([2]; LOS-induced, monocytes): inhibited identically
inhibition of SAC induced monokine production ([2]; SAC (heat killed staphylococcus aureus cells) stimulus): also inhibited
IC50 ([3]; Homo sapiens, 72 h): 0.8 ± 0.5 µM
concentration inhibiting GM-CSF production (total inhibition) ([3]; three days incubation): 1.25 µM
IC50 ([4]; Homo sapiens, PBMC): 0.6 ± 0.6 µM
cytokine inhibitory activity (IL-6 and GM-CSF production by PBMC in vitro) ([4]; IL-6 and GM-CSF production by PBMC in vitro): best inhibitor
factor by which the IL-6 inhibiting concentration is lower than that for GM-CSF [4, 7]: 2
inhibition of cytokine production induced by other stimuli ([5]; PMA/ionomycin, PMA/anti-CD28 or anti-CD2/anti-CD28 antibodies): inhibited at similar concentration
effect on production of lymphocyte specific cytokines (Th1 and Th2) ([5]; anti-CD3/anti-CD28 stimulation): identical to the inhibition found for GM-CSF

Compound: O=C1N(c2ccccc2)N(c2ccc(O)cc2)C(=O)C1(O)CCS(=O)(=O)c1ccccc1 (stereo not shown) [4-OH-OPS, 4-ethylsuphonphenyl-4-hydroxy-1-phenyl-2-hydroxyphenyl-3,5-pyrazoladinedione]
IC50 [3]: 30 ± 10 µM
concentration inhibiting GM-CSF production (total inhibition) ([3]; three days incubation): around 40 μM
concentration needed to inhibit IL-6 production compared to 4-OH-OPB [4, 7]: higher concentration
IC50 ([4]; PBMC): 13 ± 4 µM

Compound: CCCCC1C(=O)N(c2ccccc2)N(c2ccc(O)cc2)C1=O (stereo not shown) [OPB, oxyphenbutazone]
IC50 ([3]; Homo sapiens, 72 h): 25 ± 7 µM
concentration inhibiting GM-CSF production (total inhibition) ([3]; three days incubation): around 40 μM
IC50 ([4]; Homo sapiens, PBMC): 13 ± 12 µM
concentration needed to inhibit IL-6 production compared to 4-OH-OPB [4, 7]: higher concentration

Further lines, with some results ahead:

IC50 ([3]; Homo sapiens, 72 h): 30 ± 10 µM
IC50 ([4]; Homo sapiens, PBMC): > 40 µM
Compound: CCCCC1C(=O)N(c2ccccc2)N(c2ccccc2)C1=O [PB, phenbutazone]
shape of dose-response curve for GM-CSF inhibition ([3]; three days incubation, up to 40 μM): shallow dose-response curve

re-conversion into 4-OH-OPB when the solution was acidified ([6]; acidified solution): not re-converted into 4-OH—OPB
half-life ([6]; aqueous solution, pH 7.4): 2 to 2.5 h
stability compared with 4-OH-OPB ([6]; pH 7.4): more stable
Compound: N-phenyl-2-hydroxy-2-butyl-1,3-propanal quinoneimine [PHBPQ]

Reference: US20080262068A1, “Method of Tonic Treatment With Oxyphenbutazone Derivatives” (A-Viral ASA, priority 2004, published 2008)
